Here are results for 17 compounds from US20130072468A1, “SUBSTITUTED PIPERAZINES AS CB1 ANTAGONISTS” (priority 2011, published 2013).

What is called Ki is the dissociation constant of the complex between target and ligand, obtained from inhibition or displacement.

T1 sequence (P21554 whole entry): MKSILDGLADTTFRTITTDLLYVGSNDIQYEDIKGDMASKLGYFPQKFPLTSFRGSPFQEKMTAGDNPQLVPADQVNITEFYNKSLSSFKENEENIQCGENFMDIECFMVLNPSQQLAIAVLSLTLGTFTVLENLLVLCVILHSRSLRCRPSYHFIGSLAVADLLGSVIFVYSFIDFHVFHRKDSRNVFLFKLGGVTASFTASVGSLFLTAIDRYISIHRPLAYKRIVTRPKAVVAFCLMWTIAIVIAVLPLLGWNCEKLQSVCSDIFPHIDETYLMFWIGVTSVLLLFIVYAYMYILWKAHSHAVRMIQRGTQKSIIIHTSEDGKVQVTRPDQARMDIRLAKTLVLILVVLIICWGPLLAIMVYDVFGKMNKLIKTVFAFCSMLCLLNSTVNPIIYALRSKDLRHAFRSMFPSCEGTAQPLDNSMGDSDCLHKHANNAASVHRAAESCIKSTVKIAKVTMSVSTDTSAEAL

The test has as its target T1, cannabinoid CB1 (Homo sapiens, UniProt P21554).
T1 construct: purchased
Put plainly: Competition binding assay for cannabinoid CB1 affinity (3H-CP55,940 displacement, membranes). The conditions noted are these: competition binding vs 0.5 nM 3H-CP55,940; Ki by Cheng-Prusoff; read-out: Ki values in the assay described above. As for the experimental part: Method for Evaluating Cannabinoid CB1 and CB affinity
Competition binding assays for cannabinoid CB1 and CB2 affinity were performed by incubating commercially purchased membranes prepared from cells expressing each receptor subtype (8 μg pro) with 0.5 nM ^3H-CP55,940, a non-selective cannabinoid agonist, along with concentrations of drug ranging from 0.0001-3 μM in Buffer A (5 mM MgCl2, 2.5 mM EDTA and […] BSA). Non-specific binding was defined in the presence of 10 μM CP55,940. For saturation studies, concentrations of ^3H-CP55,940 ranging from 0.1-5 nM were incubated with membranes in the presence and absence of 10 μM CP55,940. Assays were terminated after incubation for 1½ hours by rapid filtration onto 0.3 polyethylenamine treated GF/C filterplates using a BRANDEL cell harvester. The plates were dried and MICROSCINT scintillation cocktail was added, after which the bound radioactivity was quantified using a TOPCOUNT scintillation counter.
The dissociation constant (Kd) of ^3H-CP55,940 at the CB1 and CB2 receptor were determined by plotting specific binding at each concentration of radioligand, and analysis by non-linear regression. For competition studies, the concentration of each drug that inhibited 50 percent of ^3H-CP55,940 binding (IC50) was determined by non-linear regression analysis of the radioligand displacement curves. Affinity constants (Ki) were calculated using the equation derived by Cheng and Prusoff (1973), defined as: IC50/1+[conc. ligand/Kd].
On to `CC(O)(CN1CCN(c2ccc(Cl)cc2Cl)[C@H](c2ccc(Cl)cc2)C1)C1CCN(S(=O)(=O)C2CC2)CC1` (some centres unmarked) [Example 1091], for which the Ki lay within 0.2 to 100 nM.
Next, `COc1cccc([C@@H]2CNCCN2c2ccc(C#N)cc2Cl)c1` [Example 813b]: no less than 900 nM.
The value for `C[C@@](O)(CN1CCN(c2ccc(Cl)cc2Cl)[C@H](c2ccc(Cl)cc2)C1)c1ccc(Cl)cc1` [Example 930] was 0.2 to 100 nM.
The value for `CC(C)(C)CCN1CCC(C(C)(O)CN2CCN(c3ccc(Cl)cc3Cl)[C@H](c3ccc(Cl)cc3)C2)CC1` (some centres unmarked) [Example 1089] was roughly 873 nM.
As to `N#Cc1cccnc1N1CCNC[C@H]1c1ccc(Cl)cc1` [Example 826d], the inhibitory constant (Ki) is no less than 900 nM.
Next, `COC(=O)c1ccc(N2CCN(Cc3ccccc3)C[C@H]2c2ccc(Cl)cc2)cc1` [Example 817]: no less than 900 nM; `O=C1CN(Cc2ccccc2)C[C@@H](c2ccc(Cl)cc2)N1c1ccc(O)cc1` [Example 831]: no less than 900 nM.
Next, `COc1ccc(N2CCNC[C@H]2c2ccc(Cl)cc2)c(F)c1` [Example 822]: no less than 900 nM; `CC(C)(C)OC(=O)N[C@@H](C(=O)N1CCN(c2ccc(Cl)cc2Cl)[C@H](c2ccc(Cl)cc2)C1)c1ccc(Cl)cc1` [Example 1167a]: no less than 900 nM.
Take `N#Cc1ccc(N2CCNC[C@H]2c2ccc(Cl)cc2)nc1` [Example 826b]: the Ki was no less than 900 nM.
On to `O=C1CN(Cc2ccccc2)C[C@@H](c2ccc(Cl)cc2)N1c1ccc(O)cc1Cl` [Example 830], for which the Ki is no less than 900 nM.
The value for `C[C@@](O)(CN1CCN(c2ccc(Cl)cc2Cl)[C@H](c2ccc(Cl)cc2)C1)c1ccc(N)nc1` [Example 1037] was 0.2 to 100 nM.
Consider `COc1ccc(N2CCNC[C@H]2c2ccc(F)cc2)c(C#N)c1` [Example 826e], for which the inhibition constant Ki was no less than 900 nM.
The value for `C[C@@](O)(CN1CCN(c2ccc(C#N)cc2Cl)[C@H](c2ccc(Cl)cc2)C1)c1cc(F)cc(F)c1` [Example 949] was 0.2 to 100 nM; that for `COc1ccc(N2CCN(Cc3ccccc3)C[C@H]2c2ccc(Cl)cc2)c(Cl)c1` [Example 807] was no less than 900 nM.
As to `CC(O)(CN1CCN(c2ccc(Cl)cc2Cl)[C@H](c2ccc(Cl)cc2)C1)C(=O)O` (some centres unmarked) [Example 877b], the inhibition constant Ki was no less than 900 nM.
The value for `OCc1ccc(N2CCN(Cc3ccccc3)C[C@H]2c2ccc(Cl)cc2)cc1` [Example 824] was no less than 900 nM.
